Assay results published in patent publication US10370366B2 (Flatley Discovery Lab, LLC, priority 2013, dated 2019).

Target: T1, human F508del CFTR (Homo sapiens, UniProt P13569, DEL508-508)
T1 construct: expressed in transfected cells; host or cells: Fisher Rat Thyroid (FRT) cells
Experiment: CFTR-YFP High Throughput Assay
Assay type: cell-based
Conditions: FRT cells expressing human F508del CFTR and YFP; for Emax: EMax normalized to the positive control, read-out: % Efficacy
How it was run: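 FRT cells stably co-expressing human F508del CFTR and halide-sensitive YFP-H148Q/I152L; for correction, compound (2 nM-40 μM) incubated 24-26 h at 37° C, washed, then stimulated 60-120 min at RT with 20 μM forskolin plus 30 μM potentiator P3. Iodide-induced YFP quench (Ex 500/Em 540 nm) recorded; quench rates least-squares fitted.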

T1 sequence (P13569 with tags, fused parts or gaps DEL508-508): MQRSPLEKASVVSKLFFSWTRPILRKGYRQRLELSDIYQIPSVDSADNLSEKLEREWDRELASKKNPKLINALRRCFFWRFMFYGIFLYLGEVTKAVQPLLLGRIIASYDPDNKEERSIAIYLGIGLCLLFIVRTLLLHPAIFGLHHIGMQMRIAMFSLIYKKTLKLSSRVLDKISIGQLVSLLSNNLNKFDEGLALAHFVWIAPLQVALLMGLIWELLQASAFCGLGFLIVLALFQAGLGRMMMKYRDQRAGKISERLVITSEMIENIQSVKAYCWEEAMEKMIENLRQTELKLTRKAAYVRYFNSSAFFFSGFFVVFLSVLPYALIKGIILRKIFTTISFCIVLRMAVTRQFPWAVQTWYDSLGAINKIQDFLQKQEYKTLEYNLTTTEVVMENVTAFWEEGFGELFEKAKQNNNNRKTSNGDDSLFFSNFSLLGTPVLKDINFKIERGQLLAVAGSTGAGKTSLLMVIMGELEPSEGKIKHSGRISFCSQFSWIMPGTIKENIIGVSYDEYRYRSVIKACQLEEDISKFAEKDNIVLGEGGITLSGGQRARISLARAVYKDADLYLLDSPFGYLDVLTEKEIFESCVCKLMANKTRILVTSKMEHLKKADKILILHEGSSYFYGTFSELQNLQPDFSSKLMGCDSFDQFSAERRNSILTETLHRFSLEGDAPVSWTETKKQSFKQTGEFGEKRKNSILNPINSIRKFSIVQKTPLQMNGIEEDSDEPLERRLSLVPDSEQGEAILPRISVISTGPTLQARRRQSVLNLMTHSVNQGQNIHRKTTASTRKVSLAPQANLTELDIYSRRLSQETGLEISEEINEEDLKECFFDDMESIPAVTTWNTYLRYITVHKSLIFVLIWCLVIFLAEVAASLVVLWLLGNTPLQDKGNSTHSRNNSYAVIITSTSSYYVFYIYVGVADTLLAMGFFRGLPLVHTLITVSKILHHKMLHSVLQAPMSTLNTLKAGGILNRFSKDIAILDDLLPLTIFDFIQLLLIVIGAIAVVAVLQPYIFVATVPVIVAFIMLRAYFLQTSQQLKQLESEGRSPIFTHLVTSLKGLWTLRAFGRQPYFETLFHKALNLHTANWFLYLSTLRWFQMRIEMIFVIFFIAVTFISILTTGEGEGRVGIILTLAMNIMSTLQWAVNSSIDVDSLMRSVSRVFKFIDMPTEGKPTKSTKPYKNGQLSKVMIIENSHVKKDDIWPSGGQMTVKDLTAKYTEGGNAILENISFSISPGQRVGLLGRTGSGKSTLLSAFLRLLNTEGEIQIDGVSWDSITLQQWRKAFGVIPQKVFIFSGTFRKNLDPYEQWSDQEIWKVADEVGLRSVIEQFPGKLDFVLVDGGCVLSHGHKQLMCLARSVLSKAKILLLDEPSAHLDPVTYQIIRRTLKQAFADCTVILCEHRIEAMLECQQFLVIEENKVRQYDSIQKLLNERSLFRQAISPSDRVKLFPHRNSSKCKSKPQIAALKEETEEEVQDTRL

| Emax [%] | EC50 [µM] | Compound |
| --- | --- | --- |
| 30 to 80 |  | CCN(C(=O)c1nn(-c2ccc(C)cc2)c(=O)c2c1c1ccccc1n2CC#N)c1ccccc1 [Example 223, 5-(cyanomethyl)-N-ethyl-4-oxo-N-phenyl-3-(p-tolyl)-4,5-dihydro-3H-pyridazino[4,5-b]indole-1-carboxamide] |
| 30 to 80 |  | CCN(C(=O)c1nn(-c2ccc(C)cc2)c(=O)c2c1c1ccccc1n2CC(=O)O)c1ccccc1 [Example 224, 2-(1-(ethyl(phenyl)carbamoyl)-4-oxo-3-(p-tolyl)-3H-pyridazino[4,5-b]indol-5(4H)-yl)acetic acid] |
| 30 to 80 |  | CCN(C(=O)c1nn(-c2ccc(C)cc2)c(=O)c2c1c1ccccc1n2C(C)C)c1ccccc1 [Example 225, N-ethyl-5-isopropyl-4-oxo-N-phenyl-3-(p-tolyl)-4,5-dihydro-3H-pyridazino[4,5-b]indole-1-carboxamide] |
| 30 to 80 |  | CCN(C(=O)c1nn(-c2ccc(C)cc2)c(=O)c2c1c1ccccc1n2Cc1ccccn1)c1ccccc1 [Example 226, N-ethyl-4-oxo-N-phenyl-5-(pyridin-2-ylmethyl)-3-(p-tolyl)-4,5-dihydro-3H-pyridazino[4,5-b]indole-1-carboxamide] |
| 30 to 80 | < 10 | CCN(C(=O)c1nn(CCOC)c(=O)c2c1c1ccccc1n2C)c1ccccc1 [Example 227, N-ethyl-3-(2-methoxyethyl)-5-methyl-4-oxo-N-phenyl-4,5-dihydro-3H-pyridazino[4,5-b]indole-1-carboxamide] |
| 30 to 80 | < 10 | CCN(C(=O)c1nn(C[C@@H](O)COC)c(=O)c2c1c1ccccc1n2C)c1ccccc1 [Example 228, (R)-N-ethyl-3-(2-hydroxy-3-methoxypropyl)-5-methyl-4-oxo-N-phenyl-4,5-dihydro-3H-pyridazino[4,5-b]indole-1-carboxamide] |
| 30 to 80 | < 10 | CCN(C(=O)c1nn(C[C@@H](O)CO)c(=O)c2c1c1ccccc1n2C)c1ccccc1 [Example 229, (R)-3-(2,3-dihydroxypropyl)-N-ethyl-5-methyl-4-oxo-N-phenyl-4,5-dihydro-3H-pyridazino[4,5-b]indole-1-carboxamide] |
| 30 to 80 | < 10 | CCN(C(=O)c1nn(C[C@@H](O)COCc2ccccc2)c(=O)c2c1c1ccccc1n2C)c1ccccc1 [Example 230, (R)-3-(3-(benzyloxy)-2-hydroxypropyl)-N-ethyl-5-methyl-4-oxo-N-phenyl-4,5-dihydro-3H-pyridazino[4,5-b]indole-1-carboxamide] |
| 30 to 80 | < 10 | CCN(CC)C(=O)c1nn(CC(O)COCc2ccccc2)c(=O)c2c1c1c(OC)cccc1n2C (centres unmarked) [Example 231, 3-(3-(benzyloxy)-2-hydroxypropyl)-N,N-diethyl-9-methoxy-5-methyl-4-oxo-4,5-dihydro-3H-pyridazino[4,5-b]indole-1-carboxamide] |
| 30 to 80 | < 10 | CCN(CC)C(=O)c1nn(CC(O)COCc2ccccc2)c(=O)c2c1c1c(C)cccc1n2C (centres unmarked) [Example 232, 3-(3-(benzyloxy)-2-hydroxypropyl)-N,N-diethyl-5,9-dimethyl-4-oxo-4,5-dihydro-3H-pyridazino[4,5-b]indole-1-carboxamide] |
| 30 to 80 | < 10 | CCN(CC)C(=O)c1nn(CC(O)COCc2ccccc2)c(=O)c2c1c1c(Cl)cccc1n2C (centres unmarked) [Example 233, 3-(3-(benzyloxy)-2-hydroxypropyl)-9-chloro-N,N-diethyl-5-methyl-4-oxo-4,5-dihydro-3H-pyridazino[4,5-b]indole-1-carboxamide] |
| 30 to 80 | < 10 | CCN(CC)C(=O)c1nn(CC(O)COCc2ccccc2)c(=O)c2c1c1c(F)cccc1n2C (centres unmarked) [Example 234, 3-(3-(benzyloxy)-2-hydroxypropyl)-N,N-diethyl-9-fluoro-5-methyl-4-oxo-4,5-dihydro-3H-pyridazino[4,5-b]indole-1-carboxamide] |
| 10 to 30 | > 20 | Cn1c2ccccc2c2c(-c3ccccc3)nn(-c3ccccc3)c(=O)c21 [Example 235] |
| 10 to 30 | > 20 | Cc1ccc(-n2nc(-c3ccccc3)c3c4ccccc4n(C)c3c2=O)cc1 [Example 236, 5-methyl-1-phenyl-3-(p-tolyl)-3H-pyridazino[4,5-b]indol-4(5H)-one] |
| 10 to 30 | > 20 | Cn1c2ccccc2c2c(-c3ccccc3)nn(-c3ccccc3F)c(=O)c21 [Example 237, 3-(2-fluorophenyl)-5-methyl-1-phenyl-3H-pyridazino[4,5-b]indol-4(5H)-one] |
| 30 to 80 | < 10 | CCN(C(=O)Cn1nc(Cc2cccnc2)c2c3ccccc3n(C)c2c1=O)c1ccc2c(c1)OC(F)(F)O2 [Example 238, N-(2,2-difluorobenzo[d][1, 3]dioxol-5-yl)-N-ethyl-2-(5-methyl-4-oxo-1-(pyridin-3-ylmethyl)-4,5-dihydro-3H-pyridazino[4,5-b]indol-3-yl)acetamide] |
| 30 to 80 | > 20 | CC(C)n1nc(-c2ccccc2)c2c3ccccc3n(C)c2c1=O [Example 239, 3-isopropyl-5-methyl-1-phenyl-3,5-dihydro-4H-pyridazino[4,5-b]indol-4-one] |
| 30 to 80 | > 20 | CC(C)n1nc(-c2cccc(C#N)c2)c2c3ccccc3n(C)c2c1=O [Example 240, 3-(3-isopropyl-5-methyl-4-oxo-4,5-dihydro-3H-pyridazino[4,5-b]indol-1-yl)benzonitrile] |
| 30 to 80 | < 10 | Cn1c2ccccc2c2c(-c3ccccc3)nn(C3CCCCC3)c(=O)c21 [Example 241, 3-cyclohexyl-5-methyl-1-phenyl-3,5-dihydro-4H-pyridazino[4,5-b]indol-4-one] |
| 30 to 80 | > 20 | Cc1ccc(-n2nc(Cn3ccnc3)c3c4ccccc4n(C)c3c2=O)cc1 [Example 242, 1-((1H-imidazol-1-yl)methyl)-5-methyl-3-(p-tolyl)-3,5-dihydro-4H-pyridazino[4,5-b]indol-4-one] |
| 30 to 80 | < 10 | Cc1ccc(-n2nc(CN3CCOCC3)c3c4ccccc4n(C)c3c2=O)cc1 [Example 243, 5-methyl-1-(morpholinomethyl)-3-(p-tolyl)-3,5-dihydro-4H-pyridazino[4,5-b]indol-4-one] |
| 30 to 80 | < 10 | Cn1c2ccccc2c2c(-c3cccc(C#N)c3)nn(C3CCCCC3)c(=O)c21 [Example 244, 3-(3-cyclohexyl-5-methyl-4-oxo-4,5-dihydro-3H-pyridazino[4,5-b]indol-1-yl)benzonitrile] |
| 10 to 30 | < 10 | CCN(C(=O)c1nn(-c2ccc(C)cc2)c(=O)c2c1c1sc(C)cc1n2C)c1ccccc1 [Example 245, N-ethyl-2,4-dimethyl-5-oxo-N-phenyl-6-(p-tolyl)-5,6-dihydro-4H-thieno[2′,3′:4,5]pyrrolo[2,3-d]pyridazine-8-carboxamide] |
| 30 to 80 | > 20 | CCN(C(=O)c1nn(C(C)C)c(=O)c2c1c1sc(C)cc1n2C)c1ccccc1 [Example 246, N-ethyl-6-isopropyl-2,4-dimethyl-5-oxo-N-phenyl-5,6-dihydro-4H-thieno[2′,3′:4,5]pyrrolo[2,3-d]pyridazine-8-carboxamide] |
